Laboratory results: ChEMBL document CHEMBL1201862, “PubChem BioAssay data set” (2004)
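These data come from cells grown in 96-well plates and exposed to compound for 48 hours at five concentrations. The concentration for 50% growth inhibition is given as GI50.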 Activity calls are given as the source filed them. No stated cut-off is given here; in the data, active = GI50 up to about 1.1 µM and inactive = higher.

Columns and labels:
Assay in all cases: inhibition of tumour cell growth, NCI panel, 48 h
[1] = tested on: MOLT-4
[2] = tested on: 786-0
[3] = tested on: Malme-3M
[4] = tested on: TK-10
[5] = tested on: OVCAR-5
[6] = tested on: MDA-MB-231
[7] = tested on: K562
[8] = tested on: OVCAR-8
[9] = tested on: UO-31
[10] = tested on: HCT-116
[11] = tested on: BT-549
[12] = tested on: HT-29
[13] = tested on: CCRF-CEM
[14] = tested on: SN12C
[15] = tested on: HCC 2998
[16] = tested on: A549
[17] = tested on: NCI-H460
[18] = tested on: MCF7
[19] = tested on: CAKI-1
[20] = tested on: LOX IMVI

Row | Compound | GI50 [1] | GI50 [2] | GI50 [3] | GI50 [4] | GI50 [5] | GI50 [6] | GI50 [7] | GI50 [8] | GI50 [9] | GI50 [10] | GI50 [11] | GI50 [12] | GI50 [13] | GI50 [14] | GI50 [15] | GI50 [16] | GI50 [17] | GI50 [18] | GI50 [19] | GI50 [20]
1 | CN(C)CCNC(=O)c1cccc2nc3c(ccc4ccccc43)nc12 | 0.327 µM (active) | 2.91 µM (inactive) | 1.56 µM (inactive) | 7.93 µM (inactive) | 4.55 µM (inactive) | 1.81 µM (inactive) | 1.52 µM (inactive) | 1.73 µM (inactive) | 3.38 µM (inactive) | 1.75 µM (inactive) | 10.6 µM (inactive) | 1.56 µM (inactive) | 1.16 µM (inactive) | 2.48 µM (inactive) | 1.98 µM (inactive) | 1.21 µM (inactive) | 0.479 µM (active) | 0.476 µM (active) | 3.37 µM (inactive) | 1.08 µM (active)
2 | O=[N+]([O-])/C(C(Cl)=C(Cl)Cl)=C(\N1CCCCC1)n1cncn1 | > 24.2 µM (inactive) | 20.4 µM (inactive) | 15.9 µM (inactive) | 17.2 µM (inactive) | 16.2 µM (inactive) | 14.8 µM (inactive) | > 46 µM (inactive) | 19.5 µM (inactive) | 15.9 µM (inactive) | 22.2 µM (inactive) | 17.5 µM (inactive) | 17.7 µM (inactive) | 3.79 µM (inactive) | 17.5 µM (inactive) | 20 µM (inactive) | 19.7 µM (inactive) | 26.2 µM (inactive) | 14.9 µM (inactive) | 10.6 µM (inactive) | 15.1 µM (inactive)
3 | C/C(=N\NC(=S)N1CCCCC1)c1nc2cccnc2[nH]1 | 3.41 µM (inactive) | 18 µM (inactive) | 27.9 µM (inactive) | 21.3 µM (inactive) | 9.66 µM (inactive) | 3.81 µM (inactive) | 6.9 µM (inactive) | 4.19 µM (inactive) | 4.24 µM (inactive) | 4.19 µM (inactive) | 4.3 µM (inactive) | 4.3 µM (inactive) | 2.79 µM (inactive) | 19.7 µM (inactive) | 20.2 µM (inactive) | 6.7 µM (inactive) | 4.03 µM (inactive) | 3.67 µM (inactive) | 13.2 µM (inactive) | 7.83 µM (inactive)
